From patent US8889878B2, “Haloalky-substituted amides as insecticides and acaricides” (Bayer CropScience AG, priority 2009, dated 2014) come the findings set out here.

Each structure is given as a SMILES string.

Test system in the first data set: not listed separately
Description: logP by HPLC on reverse-phase column (EEC Directive 79/831 Annex V.A8). The note with it: HPLC, C18 reverse phase, 43° C., acidic range pH 2.7, calibration with alkan-2-ones. The format is physicochemical. The protocol: The logP values reported in the above Tables and Preparation Examples were determined according to EEC Directive 79/831 Annex V.A8 by HPLC (High Performance Liquid Chromatography) on a reverse-phase column (C18). Temperature 43° C.
In the case of `O=C(NC(c1cccc(C(F)(F)F)c1)C(F)(F)F)c1cc2cc(S(=O)(=O)C(F)(F)F)ccc2[nH]1` (stereo not shown) [Ic-17], the logP (in general, the decadic logarithm of the partition coefficient of the neutral form, usually between octanol and water) is given as “HPLC-MS: logP = 4.19; mass”.

Take `C=CCC(=O)NCc1ccc2oc(C(=O)NC(c3cccc(C(F)(F)F)c3)C(F)(F)F)cc2c1` (stereo not shown) [Ic-13]: the log partition coefficient (logP) entry is “HPLC-MS: logP = 3.24; mass”. Still for that read-out and setting: to `O=C(/C=C/c1ccc(C(=O)NCc2ccccc2)c(C(F)(F)F)c1)NC(c1ccncc1)C(F)(F)F` (stereo not shown) [Ib-1] belongs “HPLC-MS: logP = 3.02 mass (m/z):”; to `Cn1c(C(=O)NC(c2cccc(C(F)(F)F)c2)C(F)(F)F)cc2cc(Cl)c(C(=O)NC3CC3)cc21` (stereo not shown) [Ic-48], “HPLC-MS: logP = 3.33; mass”; to `N#Cc1ccc2cc(C(=O)NC(c3cccc(C(F)(F)F)c3)C(F)(F)F)[nH]c2c1` (stereo not shown) [Ic-8], “HPLC-MS: logP = 3.51; mass”. The same measure, in the same setting: the result for `NC(=O)c1ccc2oc(C(=O)NC(c3cccc(C(F)(F)F)c3)C(F)(F)F)cc2c1` (stereo not shown) [Ic-6] reads “HPLC-MS: logP = 2.69; mass”; that for `NC(=O)c1cc2cc(C(=O)NC(c3cccc(C(F)(F)F)c3)C(F)(F)F)oc2cc1F` (stereo not shown) [Ic-16], “HPLC-MS: logP = 2.88; mass”; that for `N#Cc1ccc2cc(C(=O)NC(c3cccc(C(F)(F)F)c3)C(F)(F)F)oc2c1` (stereo not shown) [Ic-3], “HPLC-MS: logP = 3.72; mass”.

Staying with this data set, now noted: HPLC-MS.
For the molecule `N#Cc1cc(/C=C/C(=O)NC(c2cccc(C(F)(F)F)c2)C(F)(F)F)ccc1-n1cncn1` (stereo not shown) [Ia-10], the logP entry is reported as “HPLC-MS: logP = 2.99; mass”. On the same count and under the same terms, the result for `N#Cc1cc(/C=C/C(=O)NC(c2cccc(C(F)(F)F)c2)C(F)(F)F)ccc1-n1cccn1` (racemic) [Ia-201] reads “HPLC-MS: logP = 3.5; mass”; that for `COC(=O)C(C)NC(=O)c1ccc(C=CC(=O)NC(c2cccc(C(F)(F)F)c2)C(F)(F)F)cc1Cl` (mixture of isomers) [Ia-191], “HPLC-MS: logP = 3.29; mass”. Still for that read-out and setting: the result for `COC(=O)c1ccc(C(NC(=O)/C=C/c2ccc(C(=O)NC3CC3)c(C(F)(F)F)c2)C(F)(F)F)cc1C(F)(F)F` (stereo not shown) [Ia-81] reads “HPLC-MS: logP = 3.09; mass”; that for `Cc1cc(/C=C/C(=O)NC(c2cc(Cl)cc(Cl)c2)C(F)(F)F)ccc1C(=O)NC1CC1` (stereo not shown) [Ia-12], “HPLC-MS: logP = 3.33; mass”. The same measure, in the same setting: to `O=C(/C=C/c1ccc(C(=O)Nc2ncc(Cl)cn2)c(Cl)c1)NC(c1cccc(C(F)(F)F)c1)C(F)(F)F` (racemic) [Ia-199] belongs “HPLC-MS: logP = 3.47; mass”. `CCC(=O)NCc1ccc(/C=C/C(=O)NC(c2cccc(C(F)(F)F)c2)C(F)(F)F)cc1` (stereo not shown) [Ia-241]: the logP entry is recorded as “HPLC-MS: logP = 2.8; mass”. The same measure, in the same setting: to `N#Cc1cc(/C=C/C(=O)NC(c2cccc(F)c2)C(F)(F)F)ccc1-n1cncn1` (stereo not shown) [Ia-13] belongs “HPLC-MS: logP = 2.61; mass”; to `CC(=O)NCc1ccc(/C=C/C(=O)NC(c2cccc([S+](C)[O-])c2)C(F)(F)F)cc1C(F)(F)F` (stereo not shown) [Ia-245], “HPLC-MS: logP = 1.98; mass”.

`O=C(/C=C/c1ccc(C(=O)NCc2ccccn2)c(C(F)(F)F)c1)NC(c1c(F)cccc1F)C(F)(F)F` (stereo not shown) [Ia-35]: the logP result is given as “HPLC-MS: logP = 2.46; mass”. Still for that read-out and setting: the result for `O=C(/C=C/c1cccc(NC(=O)C2CC2)c1)NC(c1cccc(C(F)(F)F)c1)C(F)(F)F` (stereo not shown) [Ia-4] reads “HPLC-MS: logP = 3.42; mass”; that for `CC(CF)NC(=O)c1ccc(/C=C/C(=O)NC(c2cccc(C(F)(F)F)c2)C(F)(F)F)cc1Br` (stereo not shown) [Ia-173], “HPLC-MS: logP = 3.35; mass”. With `Cc1cc(/C=C/C(=O)NC(c2cc(Cl)cc(Cl)c2)C(F)(F)F)ccc1C(=O)NCC(F)(F)F` (stereo not shown) [Ia-20], the logP entry was “HPLC-MS: logP = 3.90; mass”. Same read-out and setting: to `CCOC1(NC(=O)c2ccc(/C=C/C(=O)NC(c3cccc(C(F)(F)F)c3)C(F)(F)F)cc2C)CC1` (stereo not shown) [Ia-85] belongs “HPLC-MS: logP = 3.27 mass”. On the same count and under the same terms, to `O=C(C=Cc1ccc(C(=O)NCC=CCl)c(Cl)c1)NC(c1cccc(C(F)(F)F)c1)C(F)(F)F` (mixture of isomers) [Ia-193] belongs “HPLC-MS: logP = 3.58; mass”; to `Cc1cc(/C=C/C(=O)NC(c2cc(Cl)cc(C(F)(F)F)c2)C(F)(F)F)ccc1C(=O)NC1CC1` (stereo not shown) [Ia-39], “HPLC-MS: logP = 3.47; mass”; to `O=C(/C=C/c1ccc(C(=O)Nc2nccs2)c(Cl)c1)NC(c1cccc(C(F)(F)F)c1)C(F)(F)F` (stereo not shown) [Ia-185], “HPLC-MS: logP = 3.51; mass”. Consider `CCC(=O)NCc1ccc(/C=C/C(=O)NC(c2cccc(C(F)(F)F)c2)C(F)(F)F)cc1C(F)(F)F` (stereo not shown) [Ia-238], for which the logP entry was “HPLC-MS: logP = 3.51; mass”. In the case of `CCC(C)NC(=O)c1ccc(C=CC(=O)NC(c2cccc(C(F)(F)F)c2)C(F)(F)F)cc1Cl` (mixture of isomers) [Ia-192], the logP result is reported as “HPLC-MS: logP = 3.71; mass”. `O=C(/C=C/c1ccc(C(=O)NC2CC2)cc1Cl)NC(c1cccc(C(F)(F)F)c1)C(F)(F)F` (stereo not shown) [Ia-233]: the logP result is recorded as “HPLC-MS: logP = 3.46; mass”. Still for that read-out and setting: the result for `COC(=O)c1ccc(NC(=O)c2ccc(/C=C/C(=O)NC(c3cccc(C(F)(F)F)c3)C(F)(F)F)cc2Cl)nc1` (stereo not shown) [Ia-218] reads “HPLC-MS: logP = 3.92; mass”; that for `CC(NC(=O)c1ccc(/C=C/C(=O)NC(c2cccc(C(F)(F)F)c2)C(F)(F)F)cc1C(F)(F)F)C1(Cl)CC1` (stereo not shown) [Ia-171], “HPLC-MS: logP = 4.18; mass”.

The data set is the same for the next values; noted with them: HPLC-MS; HPLC on reverse-phase column.
For the molecule `O=C(/C=C/c1ccc(CNc2cc(Cl)ccn2)c(C(F)(F)F)c1)NC(c1cccc(C(F)(F)F)c1)C(F)(F)F` (stereo not shown) [Ia-264], the logP result is “HPLC-MS: logP = 4.28; mass”. `O=C(/C=C/c1ccc(CNc2ccccn2)c(C(F)(F)F)c1)NC(c1cccc(C(F)(F)F)c1)C(F)(F)F` (stereo not shown) [Ia-263]: the log partition coefficient (logP) entry is reported as “HPLC-MS: logP = 2.2; mass”.

Staying with this data set, now noted: pH 2.7.
Molecule `O=C(O)/C=C/c1ccc(C(=O)Nc2ccccn2)c(C(F)(F)F)c1` [(2E)-3-[4-(Pyridin-2-yl)carbamoyl)-3-trifluoromethylphenyl]acrylic acid] gave a logP of 1.69.

The data set is the same for the next values; noted with them: reverse-phase C18 HPLC column, pH 2.7, HPLC, C18 reverse phase, 43° C., acidic range pH 2.7, calibration with alkan-2-ones.
For the molecule `NCc1ccc2oc(C(=O)NC(c3cccc(C(F)(F)F)c3)C(F)(F)F)cc2c1` (stereo not shown) [5-(Aminomethyl)-N-{2,2,2-trifluoro-1-[3-(trifluoromethyl)phenyl]ethyl}-1-benzofuran-2-carboxamide], the chromatographic logP (as a rule, a lipophilicity value derived from retention on a column) was determined as 2.02. Still for that read-out and setting: the result for `C=CC(=O)NC(c1cccc(C(F)(F)F)c1)C(F)(F)F` (stereo not shown) [N-{2,2,2-Trifluoro-1-[3-(trifluoromethyl)phenyl]ethyl}acrylamide] reads 2.75; that for `CC(C)(C)OC(=O)NCc1ccc(/C=C/C(=O)O)cc1C(F)(F)F` [(2E)-3-[4-{[tert-Butoxycarbonyl)amino]methyl}-3-(trifluoromethyl)phenyl]acrylic acid], 2.67. Same read-out and setting: the result for `CCC(=O)NC(C)c1ccc(Br)cc1F` (stereo not shown) [N-[1-(4-Bromo-2-fluorophenyl)ethyl]propanamide] reads 2.19; that for `CC(C)(C)OC(=O)c1ccc2cc(C(=O)O)oc2c1` [6-(tert-Butoxycarbonyl)-1-benzofuran-2-carboxylic acid], 2.58; that for `CC(F)(F)C(=O)c1cccc(C(F)(F)F)c1` [2,2-Difluoro-1-[3-(trifluoromethyl)phenyl]propan-1-one], 3.61. On the same count and under the same terms, the result for `NCc1ccc(/C=C/C(=O)NC(c2cccc(C(F)(F)F)c2)C(F)(F)F)cc1C(F)(F)F` (stereo not shown) [(2E)-3-[4-(Aminomethyl)-3-(trifluoromethyl)phenyl]-N-{2,2,2-trifluoro-1-[3-(trifluoro-methyl)phenyl]ethyl}acrylamide] reads 1.61; that for `O=C(c1cc(F)cc(C(F)(F)F)c1)C(F)(F)F` [2,2,2-Trifluoro-1-[3-fluoro-5-(trifluoromethyl)phenyl]ethanone], 2.54. Turning to `Nc1cccc(/C=C/C(=O)NC(c2cccc(C(F)(F)F)c2)C(F)(F)F)c1` (stereo not shown) [(2E)-3-(3-Aminophenyl)-N-{2,2,2-trifluoro-1-[3-(trifluoromethyl)phenyl]ethyl}acrylamide], the chromatographic logP came out at 2.88. The molecule `FC(F)(F)c1cc(Br)ccc1CNc1ccccn1` [N-[4-Bromo-2-(trifluoromethyl)benzyl]pyridin-2-amine] returned a chromatographic logP of 1.57. Take `O=C(/C=C/c1ccc(C(=O)O)c(Cl)c1)NC(c1cccc(C(F)(F)F)c1)C(F)(F)F` (stereo not shown) [2-Chloro-4-[(1E)-3-oxo-3-({2,2,2-trifluoro-1-[3-(trifluoromethyl)phenyl]ethyl}amino)prop-1-en-1-yl]benzoic acid]: the chromatographic logP was 3.1. Still for that read-out and setting: the result for `NCc1ccc(Br)cc1C(F)(F)F` [1-[4-Bromo-2-(trifluoromethyl)phenyl]methanamine] reads 0.92; that for `CC(C)(C)OC(=O)NCc1ccc(Br)cc1C(F)(F)F` [tert-Butyl [4-bromo-2-(trifluoromethyl)benzyl]carbamate], 4.13.

Staying with this data set, now noted: reverse-phase C18 HPLC column; HPLC, C18 reverse phase, 43° C., acidic range pH 2.7, calibration with alkan-2-ones.
The molecule `CC(C)(C)OC(=O)NCc1ccc(/C=C/C(=O)NC(c2cccc(C(F)(F)F)c2)C(F)(F)F)cc1C(F)(F)F` (stereo not shown) [tert-Butyl {4-[1E)-3-oxo-3-({2,2,2-trifluoro-1-[3-(trifluoromethyl)phenyl]ethyl}amino)prop-1-en-1-yl]-2-(trifluoromethyl)benzyl}carbamate] came in with a chromatographic logP of 4.4.

The subject of the next data set is armyworm (Spodoptera frugiperda). Description: Spodoptera frugiperda test (SPODFR spray treatment), Example 15. Type of data set: in vivo. The conditions noted are these: application rate 100 g/ha, maize leaf discs sprayed, after 7 days. The protocol:
Spodoptera frugiperda Test (SPODFR Spray Treatment)
• Solvent: 78.0 parts by weight of acetone • 1.5 parts by weight of dimethylformamide • Emulsifier: 0.5 part by weight of alkylaryl polyglycol ether
To prepare an appropriate active ingredient formulation, 1 part by weight of active ingredient is mixed with the stated amounts of solvent and emulsifier, and the concentrate is diluted with emulsifier-containing water to the desired concentration. Leaf discs from maize (Zea mays) are sprayed with an active ingredient formulation of the desired concentration and, after drying, populated with caterpillars of the armyworm (Spodoptera frugiperda).
After 7 days, the efficacy in % is determined. 100% means that all caterpillars were killed; 0% means that no caterpillars were killed.
`O=C(/C=C/c1ccc(CNc2cc(Cl)ccn2)c(C(F)(F)F)c1)NC(c1cccc(C(F)(F)F)c1)C(F)(F)F` (stereo not shown) [Ia-264] returned an efficacy in % of 100%.

Molecule `CC(NC(=O)CC1CC1)c1ccc(/C=C/C(=O)NC(c2cccc(C(F)(F)F)c2)C(F)(F)F)nc1` (stereo not shown) [If-3] had an efficacy in % of 100%.
